By Ki is commonly meant the equilibrium dissociation constant of an inhibitor or competing ligand from its target. A higher Ki goes with lower affinity.

The values that follow come from US12336991B2, “Factor XIIA inhibitors” (UNIVERSITY OF LEEDS, priority 2018, dated 2025).

Format in all cases: biochemical
The target of one test is T1, FXIIa (Homo sapiens, UniProt P00748).
T1 sequence (P00748 373-615 limits assumed): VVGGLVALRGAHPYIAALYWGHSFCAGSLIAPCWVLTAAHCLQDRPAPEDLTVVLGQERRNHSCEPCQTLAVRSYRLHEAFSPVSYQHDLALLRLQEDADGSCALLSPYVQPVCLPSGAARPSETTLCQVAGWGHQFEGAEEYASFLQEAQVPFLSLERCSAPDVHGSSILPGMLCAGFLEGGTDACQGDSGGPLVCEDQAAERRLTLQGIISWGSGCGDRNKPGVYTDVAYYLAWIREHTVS
T1 sequence (P00748 20-372 partner limits assumed): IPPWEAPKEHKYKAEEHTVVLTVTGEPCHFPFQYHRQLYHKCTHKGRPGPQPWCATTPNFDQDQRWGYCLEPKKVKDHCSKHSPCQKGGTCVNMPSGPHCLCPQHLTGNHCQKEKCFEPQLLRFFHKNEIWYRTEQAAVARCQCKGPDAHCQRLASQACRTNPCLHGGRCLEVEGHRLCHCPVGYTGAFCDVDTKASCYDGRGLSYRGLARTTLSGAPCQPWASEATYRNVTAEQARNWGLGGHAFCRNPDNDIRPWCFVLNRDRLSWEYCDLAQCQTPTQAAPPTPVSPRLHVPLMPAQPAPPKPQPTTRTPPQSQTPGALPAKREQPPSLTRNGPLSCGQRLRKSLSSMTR
Briefly: Determination of Factor XIIa inhibition, chromogenic substrate S-2302 assay. The conditions noted are these: human FXIIa alpha. In outline:
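FXIIa (10 nM) preincubated with compound 10 min at 37° C. in 50 mM Tris, 137 mM NaCl pH 7.4, 5% DMSO, top concentration 500 μM, then S-2302 added ([…]). Absorbance at 405 nm read kinetically for 3 h; IC50 from initial rates, converted to Ki by Cheng-Prusoff.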

The target in the next test is FXa (Homo sapiens, UniProt P00742). Briefly: Determination of selectivity: FXa inhibition, chromogenic substrate S2765 assay. The conditions noted are these: fold selectivity for FXIIa over FXa. In outline:
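Human FXa (5 nM) preincubated with compound (top 500 μM, 5% DMSO) 10 min at 37 °C in 50 mM Tris, 137 mM NaCl pH 7.4, then S2765 ([…]) added; A405 kinetics over 3 h at 37 °C. IC50 from initial rates, converted to Ki via Cheng-Prusoff.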

The target of the next test is T2, thrombin (Homo sapiens, UniProt P00734).
T2 construct: FXa (5 nM) and thrombin (5 nM)
Briefly: Determination of selectivity: thrombin inhibition, chromogenic substrate GPR assay. The conditions noted are these: fold selectivity for FXIIa over thrombin. In outline: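 Thrombin (5 nM) preincubated with compound 10 min at 37 °C in 50 mM Tris, 137 mM NaCl, pH 7.4, 5% DMSO, then GPR substrate ([…]) added. Absorbance at 405 nm read kinetically for 3 h; IC50 from initial rates, converted to Ki via Ki=IC50/(1+[S]/Km).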

FXa, sequence (P00742 235-488 limits assumed): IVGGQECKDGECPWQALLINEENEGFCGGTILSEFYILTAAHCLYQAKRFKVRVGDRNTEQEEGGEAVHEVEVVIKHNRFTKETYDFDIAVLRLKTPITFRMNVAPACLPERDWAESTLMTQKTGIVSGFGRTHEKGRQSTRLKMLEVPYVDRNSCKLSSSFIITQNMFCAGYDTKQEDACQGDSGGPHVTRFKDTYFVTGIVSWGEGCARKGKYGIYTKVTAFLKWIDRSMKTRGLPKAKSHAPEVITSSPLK
FXa, sequence (P00742 41-179 partner limits assumed): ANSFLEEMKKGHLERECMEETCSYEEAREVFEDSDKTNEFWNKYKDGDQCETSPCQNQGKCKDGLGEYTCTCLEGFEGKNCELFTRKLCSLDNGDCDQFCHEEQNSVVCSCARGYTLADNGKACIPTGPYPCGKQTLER

In turn, `COc1ccc(C[C@@H]2C[C@@H](C(=O)NCc3ccc4c(c3)nnn4C)N(C(=O)[C@H]3C[C@@H](c4cnn(C)c4)CN3C)C2)cc1` [Example M05474, (2S,4R)-4-(4-Methoxy-benzyl)-1-[(2R,4S)-1-methyl-4-(1-methyl-1H-pyrazol-4-yl)-pyrrolidine-2-carbonyl]-pyrrolidine-2-carboxylic acid (1-methyl-1H-benzotriazol-5-ylmethyl)-amide] came in with a Ki on FXIIa of 200 to 2000 nM. At FXa, the “FXa (human)/FXIIa alpha (human)” value is “∘∘∘”. For the same compound, the “Thrombin (human)/FXIIa alpha (human)” value at thrombin was “+++ (fold selectivity values greater than 100)”.

As for `COc1ccc(CC2C[C@@H](C(=O)NCc3ccc4c(c3)nnn4C)N(C(=O)[C@H](N)CCC(=O)N3CCCC3)C2)cc1Cl` (stereo partly drawn) [Example M05298], at FXIIa, the Ki is less than 200 nM. The “FXa (human)/FXIIa alpha (human)” value on FXa was “∘∘∘”. In addition, the “Thrombin (human)/FXIIa alpha (human)” value on thrombin was “+++ (fold selectivity values greater than 100)”.

The compound `Cn1nnc2cc(CNC(=O)[C@@H]3CC(Cc4ccc(OC(F)(F)F)cc4)CN3C(=O)[C@H](N)CCC(=O)N3CCCC3)ccc21` (stereo partly drawn) [Example M05306, (S)-1-((R)-2-Amino-5-oxo-5-pyrrolidin-1-yl-pentanoyl)-4-(4-trifluoromethoxy-benzyl)-pyrrolidine-2-carboxylicacid (1-methyl-1H-benzotriazol-5-ylmethyl)-amide] showed a Ki at FXIIa of less than 200 nM. Also, the “FXa (human)/FXIIa alpha (human)” value at FXa is recorded as “∘∘∘”. Moreover, at thrombin, the “Thrombin (human)/FXIIa alpha (human)” value was “+++ (fold selectivity values greater than 100)”.

As to `Nc1nccc2cc(CNC(=O)[C@@H]3C[C@H](C(F)(F)F)CN3C(=O)[C@H](N)CCC(=O)N3CCCC3)ccc12` [Example M05265], at FXIIa, the Ki was in the range of 200 to 2000 nM. In addition, the “FXa (human)/FXIIa alpha (human)” value on FXa is listed as “∘”. The “Thrombin (human)/FXIIa alpha (human)” value at thrombin is “+ (fold selectivity values less than 10)”.

Compound `COc1ccc(C[C@@H]2C[C@@H](C(=O)NCc3ccc4c(c3)nnn4C)N(C(=O)[C@H]3CC(c4ccc[nH]c4=O)CN3)C2)cc1` (stereo partly drawn) [Example M05419] registered a Ki on FXIIa of less than 200 nM. Besides, the “FXa (human)/FXIIa alpha (human)” value on FXa is reported as “∘∘∘”. The “Thrombin (human)/FXIIa alpha (human)” value at thrombin is on record as “+++ (fold selectivity values greater than 100)”.

At FXIIa, `COc1ccc(C[C@@H]2C[C@@H](C(=O)NCc3ccc4c(c3)nnn4C)N(C(=O)[C@H]3C[C@@H](c4ccccc4)CN3C)C2)cc1` [Example M05389, (2S,4R)-4-(4-Methoxy-benzyl)-1-((2R,4S)-1-methyl-4-phenyl-pyrrolidine-2-carbonyl)-pyrrolidine-2-carboxylic acid (1-methyl-1H-benzotriazol-5-ylmethyl)-amide] returned a Ki of 200 to 2000 nM. Besides, the “FXa (human)/FXIIa alpha (human)” value on FXa is on record as “∘∘∘”. The “Thrombin (human)/FXIIa alpha (human)” value on thrombin was “+++ (fold selectivity values greater than 100)”.

Consider `O=C(NCc1cc2cnccc2[nH]1)[C@@H]1C[C@@H](Cc2ccc(C(F)(F)F)cc2)CN1C(=O)C1NCCc2cc(Cl)ccc21` (stereo partly drawn) [Example M00970], for which the inhibitory constant (Ki) at FXIIa was 200 to 2000 nM. For the same compound, the “FXa (human)/FXIIa alpha (human)” value at FXa is reported as “∘∘∘”. The “Thrombin (human)/FXIIa alpha (human)” value at thrombin is recorded as “++ (fold selectivity value of 10 to 100)”.

Compound `Cn1nnc2cc(CNC(=O)[C@]3(C)CCCN3C(=O)[C@H](N)CCC(=O)N3CCCC3)ccc21` [Example M05318] had a Ki at FXIIa of more than 2000 nM. For the same compound, on FXa, the “FXa (human)/FXIIa alpha (human)” value is listed as “∘∘”. In addition, on thrombin, the “Thrombin (human)/FXIIa alpha (human)” value is recorded as “+ (fold selectivity values less than 10)”.

`Cn1nccc1-c1ccc(C[C@@H]2C[C@@H](C(=O)NCc3ccc4c(c3)nnn4C)N(C(=O)[C@H]3C[C@@H](c4ccccc4)CN3)C2)cc1` [Example M05367] displayed a Ki on FXIIa of 200 to 2000 nM. Moreover, the “FXa (human)/FXIIa alpha (human)” value on FXa is “∘∘∘”. For the same compound, the “Thrombin (human)/FXIIa alpha (human)” value on thrombin was “+++ (fold selectivity values greater than 100)”.

With `Cn1nnc2cc(CNC(=O)[C@@H]3C[C@@H](Cc4ccc(S(C)(=O)=O)cc4)CN3C(=O)[C@H](N)CCC(=O)N3CCCC3)ccc21` [Example M05384], the Ki on FXIIa lay in the range of 200 to 2000 nM. The “FXa (human)/FXIIa alpha (human)” value on FXa is recorded as “∘∘∘”. Besides, the “Thrombin (human)/FXIIa alpha (human)” value on thrombin is “+++ (fold selectivity values greater than 100)”.

`N#C[C@@H]1C[C@@H](C(=O)NCc2ccc(CN)cc2)N(C(=O)[C@H](N)CCc2ccccc2)C1` [Example M05091, (2S,4R)-1-((R)-2-Amino-4-phenyl-butyryl)-4-cyano-pyrrolidine-2-carboxylic acid 4-aminomethyl-benzylamide] displayed a Ki at FXIIa of more than 2000 nM. Further, the “FXa (human)/FXIIa alpha (human)” value on FXa is “∘∘”. Further, the “Thrombin (human)/FXIIa alpha (human)” value on thrombin is recorded as “+ (fold selectivity values less than 10)”.

In turn, `COc1ccc(C[C@@H]2C[C@@H](C(=O)NCc3ccc4c(c3)nnn4C)N(C(=O)[C@H](N)CCC(=O)N3C4CCC3C(=O)NC4)C2)cc1` (stereo partly drawn) [Example M05460] displayed a Ki on FXIIa of 200 to 2000 nM. In addition, the “FXa (human)/FXIIa alpha (human)” value at FXa is listed as “∘∘∘”. Besides, on thrombin, the “Thrombin (human)/FXIIa alpha (human)” value is listed as “+++ (fold selectivity values greater than 100)”.

`Cn1nnc2cc(CNC(=O)[C@@H]3C[C@@H](Cc4ccncc4)CN3C(=O)[C@H]3C[C@@H](c4ccccc4)CN3)ccc21` [Example M05288] registered a Ki at FXIIa of more than 2000 nM. The “FXa (human)/FXIIa alpha (human)” value on FXa is “∘∘∘”. Also, the “Thrombin (human)/FXIIa alpha (human)” value at thrombin is “++ (fold selectivity value of 10 to 100)”.

With `COc1cc(CNC(=O)[C@@H]2C[C@H](c3ccccc3)CN2C(=O)[C@H](N)CCc2ccccc2)ccc1CN` [Example M05068], the inhibition constant (Ki) on FXIIa lay in the range of 200 to 2000 nM. Also, on FXa, the “FXa (human)/FXIIa alpha (human)” value is reported as “∘∘∘”. Besides, the “Thrombin (human)/FXIIa alpha (human)” value at thrombin is listed as “++ (fold selectivity value of 10 to 100)”.

Turning to `COc1ccc(C[C@@H]2C[C@@H](C(=O)NCc3ccc4c(c3)nnn4C)N(C(=O)[C@H]3CC(c4ccccc4OC)CN3)C2)cc1` (stereo partly drawn) [Example M05378], at FXIIa, the Ki is 200 to 2000 nM. Moreover, the “FXa (human)/FXIIa alpha (human)” value on FXa is recorded as “∘∘∘”. In addition, the “Thrombin (human)/FXIIa alpha (human)” value on thrombin is “++ (fold selectivity value of 10 to 100)”.

In the case of `COc1ccc(C[C@@H]2C[C@@H](C(=O)NCc3ccc4c(c3)nnn4C)N(C(=O)[C@H]3C[C@@H](Cc4ccccc4)CN3)C2)cc1` [Example M05383], the Ki at FXIIa is 200 to 2000 nM. Also, the “FXa (human)/FXIIa alpha (human)” value on FXa is “∘∘∘”. Also, the “Thrombin (human)/FXIIa alpha (human)” value on thrombin is recorded as “++ (fold selectivity value of 10 to 100)”.

In the case of `Cn1nnc2cc(CNC(=O)[C@@H]3C[C@H](NCCCc4ccccc4)CN3C(=O)[C@H](N)CCc3ccccc3)ccc21` [Example M05206], the inhibition constant Ki at FXIIa is more than 2000 nM. Moreover, the “FXa (human)/FXIIa alpha (human)” value at FXa is given as “∘∘”. The “Thrombin (human)/FXIIa alpha (human)” value at thrombin is on record as “++ (fold selectivity value of 10 to 100)”.

On to `COc1ccc(C[C@@H]2C[C@@H](C(=O)NCc3ccc4c(c3)nnn4C)N(C(=O)C3NCCc4cc(OC)ccc43)C2)cc1` (stereo partly drawn) [Example M05441], for which the Ki on FXIIa was less than 200 nM. On FXa, the “FXa (human)/FXIIa alpha (human)” value is “∘∘∘”. In addition, the “Thrombin (human)/FXIIa alpha (human)” value at thrombin is “+++ (fold selectivity values greater than 100)”.

`COc1ccc(C[C@@H]2C[C@@H](C(=O)NCc3cc4cnccc4[nH]3)N(C(=O)C3NCCc4cc(OC)ccc43)C2)cc1` (single isomer, unassigned) [Example M00963] displayed an inhibition constant Ki on FXIIa of less than 200 nM. For the same compound, the “FXa (human)/FXIIa alpha (human)” value at FXa is listed as “∘∘∘”. In addition, the “Thrombin (human)/FXIIa alpha (human)” value at thrombin is “+++ (fold selectivity values greater than 100)”.

`COc1ccc(C[C@@H]2C[C@@H](C(=O)NCc3ccc4c(c3)nnn4C)N(C(=O)[C@H]3CC(c4cncn4C)CN3)C2)cc1` (stereo partly drawn) [Example M05446]: at FXIIa, the Ki was more than 2000 nM. Moreover, the “FXa (human)/FXIIa alpha (human)” value at FXa was “∘∘”. Further, on thrombin, the “Thrombin (human)/FXIIa alpha (human)” value is reported as “++ (fold selectivity value of 10 to 100)”.

At FXIIa, `Cn1nnc2cc(CNC(=O)[C@@H]3C[C@@H](Cc4ccc(C(F)(F)F)cc4)CN3C(=O)[C@H]3C[C@@H](c4ccccc4)CN3)ccc21` [Example M05334] had a Ki of 200 to 2000 nM. Besides, the “FXa (human)/FXIIa alpha (human)” value on FXa is reported as “∘∘”. For the same compound, the “Thrombin (human)/FXIIa alpha (human)” value at thrombin is reported as “++ (fold selectivity value of 10 to 100)”.

With `Cn1nnc2cc(CNC(=O)[C@@H]3C[C@H](NC4CCCCC4)CN3C(=O)[C@H](N)CCc3ccccc3)ccc21` [Example M05203], the Ki on FXIIa was more than 2000 nM. Also, the “FXa (human)/FXIIa alpha (human)” value at FXa is listed as “∘∘”. For the same compound, the “Thrombin (human)/FXIIa alpha (human)” value at thrombin is “++ (fold selectivity value of 10 to 100)”.

On FXIIa, `COc1ccc(C[C@@H]2C[C@@H](C(=O)NCc3ccc4c(c3)nnn4C)N(C(=O)[C@H](N)CCC(=O)N3C4CCC3CNC4)C2)cc1` [Example M05420] registered a Ki of less than 200 nM. Also, the “FXa (human)/FXIIa alpha (human)” value at FXa is “∘∘∘”. The “Thrombin (human)/FXIIa alpha (human)” value at thrombin is “+++ (fold selectivity values greater than 100)”.
